Where two headings read alike, the source gives them in different places.
Key:
[1] = target: T1, PI3Kγ (Homo sapiens, UniProt P48736); assay: PI3Kγ cellular assay in THP-1 cells (AKT pS473 AlphaLISA); assay type: cell-based
T1 construct: host or cells: THP-1
Summary of the method: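 Serum-starved THP-1 cells (1.8×10^5/well, serum-free DMEM) treated with compounds from 4 nM to 30 μM in 2% DMSO, then stimulated and lysed.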

[2] = target: T2, PI3Kγ (p120γ) (Homo sapiens, UniProt P48736); assay: Inhibition of PI3K kinase activity (ADP Glo), PI3Kγ; details: read-out: biochemical potency (PI3Kγ IC50)
T2 construct: purchased Promega V1761
Summary of the method: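 Recombinant p120γ (8 nM, 2× stock) was preincubated with compound for 1 h at rt in HEPES pH 7.4, NaCl, MgCl2 and 0.05% BSA. Reaction was started with PIP2 (0.1 mg/ml, 2×) and ATP (50 μM, 2×) and ran 60 min at rt. ADP formed was read by ADP-Glo luminescence, and IC50 came from a 4-parameter fit.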

[3] = Table 2, rhMCP-1 stimulated AKT pS473, read-out: cellular potency (PI3Kγ IC50)
[4] = Table 1, rhMCP-1 stimulated AKT pS473, read-out: cellular potency (PI3Kγ IC50)
[5] = Table 3, rhMCP-1 stimulated AKT pS473, read-out: cellular potency (PI3Kγ IC50)
[6] = AKT pS473, read-out: cellular potency (PI3Kγ IC50)

T2 sequence (P48736 whole entry): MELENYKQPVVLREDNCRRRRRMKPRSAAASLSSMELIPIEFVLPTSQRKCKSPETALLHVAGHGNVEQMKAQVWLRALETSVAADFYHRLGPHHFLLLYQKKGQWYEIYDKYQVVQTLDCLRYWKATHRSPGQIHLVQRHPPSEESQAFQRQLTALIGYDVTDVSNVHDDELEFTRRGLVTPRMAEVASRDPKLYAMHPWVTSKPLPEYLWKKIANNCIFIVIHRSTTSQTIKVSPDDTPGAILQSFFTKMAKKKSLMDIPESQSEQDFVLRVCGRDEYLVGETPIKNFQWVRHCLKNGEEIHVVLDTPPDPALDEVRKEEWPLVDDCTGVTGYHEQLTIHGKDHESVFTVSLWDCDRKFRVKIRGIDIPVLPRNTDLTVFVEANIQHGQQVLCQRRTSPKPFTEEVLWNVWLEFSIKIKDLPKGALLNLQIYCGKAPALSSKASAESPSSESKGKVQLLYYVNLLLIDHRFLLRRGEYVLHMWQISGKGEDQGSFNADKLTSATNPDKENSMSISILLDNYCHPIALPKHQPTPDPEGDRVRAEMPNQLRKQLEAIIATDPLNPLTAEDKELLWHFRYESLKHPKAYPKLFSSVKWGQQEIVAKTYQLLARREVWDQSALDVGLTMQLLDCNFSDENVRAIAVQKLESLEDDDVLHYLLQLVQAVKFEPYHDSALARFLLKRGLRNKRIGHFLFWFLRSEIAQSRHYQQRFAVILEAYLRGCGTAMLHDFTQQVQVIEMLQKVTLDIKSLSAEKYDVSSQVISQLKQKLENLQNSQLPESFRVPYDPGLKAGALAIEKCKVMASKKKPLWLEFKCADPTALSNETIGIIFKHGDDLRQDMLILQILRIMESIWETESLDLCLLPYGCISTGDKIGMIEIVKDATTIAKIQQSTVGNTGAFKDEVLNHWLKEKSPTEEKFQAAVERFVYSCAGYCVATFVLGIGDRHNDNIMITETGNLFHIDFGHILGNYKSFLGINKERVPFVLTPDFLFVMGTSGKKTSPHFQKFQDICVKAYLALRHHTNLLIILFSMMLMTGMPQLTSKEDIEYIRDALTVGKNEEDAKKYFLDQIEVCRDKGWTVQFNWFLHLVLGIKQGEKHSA
T1 sequence (P48736 whole entry): as above

Cc1cc(-c2ccn3nc(N)c(C(=O)N[C@@H]4CCCC[C@H]4O)c3n2)cc2c1C(=O)N([C@@H](C)C1CC1)C2 [Example 229]
IC50 [1, 3]: 100 to 1000 nM | IC50 ([2]; Table 2, p120γ): < 100 nM

C[C@@H](C1CC1)N1Cc2cc(-c3ccn4nc(N)c(C(=O)N[C@H]5CC[C@@](C)(O)CC5)c4n3)cc(C(C)(C)O)c2C1=O [Example 171, 2-Amino-5-{2-[(1S)-1-cyclopropylethyl]-7-(2-hydroxypropan-2-yl)-1-oxo-2,3-dihydro-1H-isoindol-5-yl}-N-[cis-4-hydroxy-4-methylcyclohexyl]pyrazolo[1,5-a]pyrimidine-3-carboxamide]
IC50 [1, 4]: < 100 nM | IC50 ([2]; Table 1, p120γ): < 100 nM

Cc1cc(-c2ccn3nc(N)c(C(=O)N[C@H]4CC[C@@H](N)CC4)c3n2)cc2c1C(=O)N([C@@H](C)C1CC1)C2 [Example 273]
IC50 [1, 3]: 100 to 1000 nM | IC50 ([2]; Table 2, p120γ): < 100 nM

Cc1cc(-c2ccn3nc(N)c(C(=O)NC4(CO)CC4)c3n2)cc2c1C(=O)N([C@@H](C)C1CC1)C2 [Example 246]
IC50 [1, 3]: 100 to 1000 nM | IC50 ([2]; Table 2, p120γ): < 100 nM

CC[C@H](C)NC(=O)c1c(N)nn2ccc(-c3cc4c(c(C(F)(F)F)c3)C(=O)N([C@@H](C)C3CC3)C4)nc12 [Example 343]
IC50 [1, 5]: 100 to 1000 nM | IC50 ([2]; Table 3, p120γ): < 100 nM

C[C@H](CO)NC(=O)c1c(N)nn2ccc(-c3cc4c(c(C5CC5)c3)C(=O)N([C@@H](C)C3CC3)C4)nc12 [Example 166, 2-Amino-5-{7-cyclopropyl-2-[(1S)-1-cyclopropylethyl]-1-oxo-2,3-dihydro-1H-isoindol-5-yl}-N-[(2R)-1-hydroxypropan-2-yl]pyrazolo[1,5-a]pyrimidine-3-carboxamide]
IC50 [1, 4]: < 100 nM | IC50 ([2]; Table 1, p120γ): < 100 nM

Cc1cc(-c2ccn3nc(N)c(C(=O)NCC(N)=O)c3n2)cc2c1C(=O)N([C@@H](C)C1CC1)C2 [Example 236]
IC50 [1, 3]: 100 to 1000 nM | IC50 ([2]; Table 2, p120γ): < 100 nM

C[C@@H](C1CC1)N1Cc2cc(-c3ccn4nc(N)c(C(=O)N[C@H]5CNC(=O)C5)c4n3)cc(O[C@@H]3CCOC3)c2C1=O [Example 145, 2-Amino-5-{2-[(1S)-1-cyclopropylethyl]-1-oxo-7-[(3R)-oxolan-3-yloxy]-2,3-dihydro-1H-isoindol-5-yl}-N-[(3R)-5-oxopyrrolidin-3-yl]pyrazolo[1,5-a]pyrimidine-3-carboxamide]
IC50 [1, 4]: < 100 nM | IC50 ([2]; Table 1, p120γ): < 100 nM

Cc1cc(-c2ccn3nc(N)c(C(=O)N[C@H](C(N)=O)c4ccccc4)c3n2)cc2c1C(=O)N([C@@H](C)C1CC1)C2 [Example 286]
IC50 [1, 3]: > 1000 nM | IC50 ([2]; Table 2, p120γ): 100 to 1000 nM

CC(C)NS(=O)(=O)c1cc(-c2ccn3nc(N)c(C(=O)NC4CC4)c3n2)cc2c1C(=O)N([C@@H](C)C1CC1)C2 [Example 446]
IC50 ([1]; Table 6, rhMCP-1 stimulated AKT pS473, read-out: cellular potency (PI3Kγ IC50)): 100 to 1000 nM | IC50 ([2]; Table 6, p120γ): < 100 nM

Cc1cc(-c2ccn3nc(N)c(C(=O)N[C@@H](C)c4cnn(C)c4)c3n2)cc2c1C(=O)N([C@@H](C)C1CC1)C2 [Example 235]
IC50 [1, 3]: 100 to 1000 nM | IC50 ([2]; Table 2, p120γ): < 100 nM

C[C@@H](C1CC1)N1Cc2cc(-c3ccn4nc(N)c(C(=O)NC5CC5)c4n3)cc(F)c2C1=O [Example 370]
IC50 [1, 6]: 100 to 1000 nM | IC50 [2]: < 100 nM

C[C@@H](C1CC1)N1Cc2cc(-c3ccn4nc(N)c(C(=O)NC5CC5(C)C)c4n3)cc(NS(C)(=O)=O)c2C1=O (some centres unmarked) [Example 394]
IC50 [1, 6]: 100 to 1000 nM | IC50 [2]: < 100 nM

Cc1cc(-c2ccn3nc(N)c(C(=O)N[C@@H](CO)CC(C)C)c3n2)cc2c1C(=O)N([C@@H](C)C1CC1)C2 [Example 267]
IC50 [1, 3]: 100 to 1000 nM | IC50 ([2]; Table 2, p120γ): < 100 nM

C[C@@H](C1CC1)N1Cc2cc(-c3ccn4nc(N)c(C(=O)N[C@H]5CCNC5=O)c4n3)cc(C(F)(F)F)c2C1=O [Example 49, 2-Amino-5-{2-[(1S)-1-cyclopropylethyl]-1-oxo-7-(trifluoromethyl)-2,3-dihydro-1H-isoindol-5-yl}-N-[(3S)-2-oxopyrrolidin-3-yl]pyrazolo[1,5-a]pyrimidine-3-carboxamide]
IC50 [1, 4]: < 100 nM | IC50 ([2]; Table 1, p120γ): < 100 nM

Cc1cc(-c2ccn3nc(N)c(C(=O)N[C@@H]4c5ccccc5C[C@@H]4O)c3n2)cc2c1C(=O)N([C@@H](C)C1CC1)C2 [Example 240]
IC50 [1, 3]: 100 to 1000 nM | IC50 ([2]; Table 2, p120γ): < 100 nM

C[C@@H](C1CC1)N1Cc2cc(-c3ccn4nc(N)c(C(=O)N[C@@H]5CCC[C@H](N)C5)c4n3)cc(C(F)(F)F)c2C1=O [Example 358]
IC50 [1, 5]: 100 to 1000 nM | IC50 ([2]; Table 3, p120γ): < 100 nM

C[C@@H](C1CC1)N1Cc2cc(-c3ccn4nc(N)c(C(=O)NC5COC5)c4n3)cc(C(F)(F)F)c2C1=O [Example 53, 2-[(S)-1-Cyclopropylethyl]-5-{2-amino-3-[(3-oxetanylamino)carbonyl]-1,4,7a-triaza-5-indenyl}-7-(trifluoromethyl)-1-isoindolinone]
IC50 [1, 4]: < 100 nM | IC50 ([2]; Table 1, p120γ): < 100 nM

Cc1cc(-c2ccn3nc(N)c(C(=O)Nc4ccc(Cl)cc4)c3n2)cc2c1C(=O)N([C@@H](C)C1CC1)C2 [Example 299]
IC50 [1, 3]: > 1000 nM | IC50 ([2]; Table 2, p120γ): < 100 nM
